Results as given in patent US9273075B2, “Prodrugs of 1,4-benzodiazepinone compounds” (BRISTOL-MYERS SQUIBB COMPANY, priority 2012, dated 2016).

Tests used:
MDA-MB-468 breast cancer = test: Cell proliferation, MDA-MB-468 breast cancer; format: cell-based; settings: Homo sapiens; MDA-MB-468 breast cancer cells
Method: (§1) In in vitro studies, all agents were dissolved in 100% DMSO and serially diluted in media/10% fetal bovine serum. For administration of Notch inhibitors to rodents, two different excipients were used: [1] 94% Labrafil/5% ETOH/1% TW80 or [2] ETOH/TPGS/PEG300 (10:10:80). Notch inhibitors were typically administered orally on a schedule of QD×15, 10 day-on-2 day-off, although other schedules had also been evaluated and shown to be efficacious.

[1] = High Throughput Metabolic Stability Panel, mouse liver microsomes; settings: 0.5 μM compound, mouse liver microsomes, ten-minute incubation, NADPH
[2] = tested on: MDA-MB157 TN breast cancer; test: Human tumor xenograft in mice: MDA-MB157; format: in vivo; settings: PO, QDx15, 10 day-on-2 day-off, 5-10 mg/kg/adm
[3] = 0.5 μM compound, human liver microsomes, ten-minute incubation, NADPH
Method: The metabolic stability assay evaluated CYP-mediated metabolic stability in vitro using human, rat, mouse, dog, and/or monkey microsomes after a ten-minute incubation. Each compound was tested in duplicate.
Test compound was received as a 3.5 mM stock solution in 100 percent DMSO. […] Each compound was tested in duplicate separately in each of three species in the Metabolic Stability-Human, Rat, and Mouse assay suite or as individual species in the Metabolic Stability-Dog or Metabolic Stability-Monkey suites. Compound, NADPH, and liver microsome solutions were combined for incubation in three steps:
The reaction was initiated by the addition of 17 μl of pre-warmed 10 mM NADPH solution in 100 mM NaPi, pH 7.4.
The reaction components were mixed well, and 75 μl of the reaction mixture was immediately transferred into 150 μl quench/stop solution (zero-time point, T0). Reactions were incubated at 37° C. for 10 minutes and then an additional 75 μl aliquot was transferred into 150 μl quench solution. Acetonitrile containing 100 μM DMN (a UV standard for injection quality control), was used as the quench solution to terminate metabolic reactions.
Quenched mixtures were centrifuged at 1500 rpm (˜500×g) in an ALLEGRA® X-12 centrifuge, SX4750 rotor (Beckman Coulter Inc., Fullerton, Calif.) for fifteen minutes to pellet denatured microsomes. A volume of 90 μl of supernatant extract, containing the mixture of parent compound and its metabolites, was then transferred to a separate 96-well plate for UV-LC/MS-MS analysis to determine the percent of parent compound that remained in the mixture.
Peak integration was performed with the XCALIBUR® software. The percent remaining calculation was performed by comparing the LC-MS/MS peak areas from the T10minute samples to those from the T0minute samples for each compound.
A set of three compounds was tested along with the test compound in each assay plate.

Pat-50 ovarian cancer = test: Human tumor xenograft in mice: Pat-50; format: in vivo; settings: Pat-50 xenograft; PO, QDx15, 10 day-on-2 day-off, 5-10 mg/kg/adm
[4] = tested on: MDA-MB468 TN breast cancer; test: Human tumor xenograft in mice: MDA-MB468; format: in vivo; settings: PO, QDx15, 10 day-on-2 day-off, 5-10 mg/kg/adm
Pat-24 pancreatic cancer = test: Human tumor xenograft in mice: Pat-24; format: in vivo; settings: Pat-24 xenograft; PO, QDx15, 10 day-on-2 day-off, 5-10 mg/kg/adm
[5] = tested on: BT-474 HER2+ breast cancer; test: Human tumor xenograft in mice: BT-474; format: in vivo; settings: BT-474 xenograft; PO, QDx15, 10 day-on-2 day-off, 5-10 mg/kg/adm
[6] = tested on: Calu-6 Non small cell lung cancer; test: Human tumor xenograft in mice: Calu-6; format: in vivo; settings: Calu-6 xenograft; PO, QDx15, 10 day-on-2 day-off, 5-10 mg/kg/adm
[7] = tested on: MCF7i estrogen-independent breast cancer; test: Human tumor xenograft in mice: MCF7i; format: in vivo; settings: PO, QDx15, 10 day-on-2 day-off, 5-10 mg/kg/adm
HCT116 colon cancer = test: Human tumor xenograft in mice: HCT116; format: in vivo; settings: PO, QDx15, 10 day-on-2 day-off, 5-10 mg/kg/adm
Pat-34 ovarian cancer = test: Human tumor xenograft in mice: Pat-34; format: in vivo; settings: Pat-34 xenograft; PO, QDx15, 10 day-on-2 day-off, 5-10 mg/kg/adm
[8] = tested on: U-87 glioblastoma multiforme (GBM); test: Human tumor xenograft in mice: U-87; format: in vivo; settings: U-87 xenograft; PO, QDx15, 10 day-on-2 day-off, 5-10 mg/kg/adm
TALL-1 leukemia = test: Cell proliferation, TALL-1 leukemia; format: cell-based; settings: Homo sapiens; TALL-1 leukemia cells
Method: as §1

[9] = tested on: Pat-21/Abx R TN breast cancer (abx R); test: Human tumor xenograft in mice: Pat-21/Abx R; format: in vivo; settings: Pat-21/Abx R xenograft; PO, QDx15, 10 day-on-2 day-off, 5-10 mg/kg/adm
SK-N-AS neuroblastoma = test: Human tumor xenograft in mice: SK-N-AS; format: in vivo; settings: PO, QDx15, 10 day-on-2 day-off, 5-10 mg/kg/adm
G292 osteogenic sarcoma = test: Human tumor xenograft in mice: G292; format: in vivo; settings: PO, QDx15, 10 day-on-2 day-off, 5-10 mg/kg/adm
[10] = tested on: TALL1 Human T-cell acute lymphoblastic leukemia; test: Human tumor xenograft in mice: TALL1; format: in vivo
[11] = tested on: MCF7 estrogen-dependent breast cancer; test: Human tumor xenograft in mice: MCF7; format: in vivo; settings: PO, QDx15, 10 day-on-2 day-off, 5-10 mg/kg/adm
Pat-26 pancreatic cancer = test: Human tumor xenograft in mice: Pat-26; format: in vivo; settings: Pat-26 xenograft; PO, QDx15, 10 day-on-2 day-off, 5-10 mg/kg/adm

CN1C(=O)[C@@H](NC(=O)[C@H](CCC(F)(F)F)[C@H](CCC(F)(F)F)C(N)=O)N=C(c2ccccc2)c2ccccc21 [Compound A, (2R,3S)—N-((3S)-1-Methyl-2-oxo-5-phenyl-2,3-dihydro-1H-1,4-benzodiazepin-3-yl)-2,3-bis(3,3,3-trifluoropropyl)succinamide]
IC50 (MDA-MB-468 breast cancer): 3.8 nM | 0.5 μM MsLM (% Remaining) [1]: 91% | Antitumor Activity (% TGI) [2]: 81 % TGI | 0.5 μM HLM (% Remaining) [3]: 97% | Antitumor Activity (% TGI) (Pat-50 ovarian cancer): 91 % TGI | Antitumor Activity (% TGI) [4]: 91 % TGI | Antitumor Activity (% TGI) (Pat-24 pancreatic cancer): 111 % TGI | Antitumor Activity (% TGI) [5]: 96 % TGI | Antitumor Activity (% TGI) [6]: 81 % TGI | Antitumor Activity (% TGI) [7]: 63 % TGI | Antitumor Activity (% TGI) (HCT116 colon cancer): 75 % TGI | Antitumor Activity (% TGI) (Pat-34 ovarian cancer): 89 % TGI | Antitumor Activity (% TGI) [8]: 82 % TGI | IC50 (TALL-1 leukemia): 3.9 nM | Antitumor Activity (% TGI) [9]: 73 % TGI | Antitumor Activity (% TGI) (SK-N-AS neuroblastoma): 67 % TGI | Antitumor Activity (% TGI) (G292 osteogenic sarcoma): 75 % TGI | in vivo efficacy against TALL1, activity as defined by the tumor growth inhibition (TGI) ([10]; FIG. 1, dosed intravenously QD×3, weekly×3, Compound A 3 mg/kg, Example 12 1.5, 3, 6 mg/kg, active = TGI≧50%): active | Antitumor Activity (% TGI) ([10]; TALL1 xenograft, PO, QDx15, 10 day-on-2 day-off, 5-10 mg/kg/adm): 112 % TGI | Antitumor Activity (% TGI) [11]: 73 % TGI | Antitumor Activity (% TGI) (Pat-26 pancreatic cancer): 93 % TGI
